{
  "source": "patent US20240228443A1",
  "about": "“NOVEL MANUFACTURING METHOD OF D[…] PRECURSORS THEREOF” (GlaxoSmithKline Intellectual Property (No.2) Limited, priority 2021, published 2024)",
  "experiment": "Solubility by saturation of the solvent, filtration and determination of concentration in the supernatant",
  "assay_type": "physicochemical",
  "details": "thermodynamic from solid",
  "description": "The solubility of 5-acetyl-1,3-dicyclohexylpyrimidine-2,4,6(1H,3H,5H)-trione was measured in 29.5% v/v acetic anhydride-acetic acid (a mimic for the solvent composition at the end of Stage 1), acetic acid and water. The solubility was measured by saturation of the solvent with the component, filtration and determination of the component concentration in the supernatant.",
  "data": [
    {"smiles": "CC(=O)C1C(=O)N(C2CCCCC2)C(=O)N(C2CCCCC2)C1=O", "note": "[5-acetyl-1,3-dicyclohexylpyrimidine-2,4,6(1H,3H,5H)-trione]", "values": [
      {"measurement": "solubility", "setting": "organic solvent or mixture, in 29.5% v/v acetic anhydride-acetic acid at 15° C.", "value": 43.7, "unit": "mg/mL"},
      {"measurement": "solubility", "setting": "organic solvent or mixture, in acetic acid at 20° C.", "value": 62.3, "unit": "mg/mL"},
      {"measurement": "solubility", "setting": "in water at 25° C.", "value": "< 0.1", "unit": "mg/mL"}
    ]}
  ]
}
